The text below walks through data of patent publication US9938301B2, “Dihydropyrimido fused ring derivative as HBV inhibitor” (QILU PHARMACEUTICAL CO., LTD., priority 2014, dated 2018).

Like-named read-outs stand apart in the source and are kept apart here.

This test deals with HBV DNA in HepG2.2.15 cells. As to the kind of experiment: HBV in vitro assay quantitive qPCR test. Particulars: Hepatitis B virus, HepG2.2.15 cells. In kind it is cell-based. As for the experimental part: • 1 Purpose of the test: • The content of HBV DNA in HepG2.2.15 cells was detected by real time quantitive qPCR test to evaluate an inhibitory action of the compound on HBV with an EC50 value of the compound as an indicator. • 2 Experimental materials: • 2.1 Cell lines: HepG2.2.15 Cells • HepG2.2.15 cell culture media (DMEM/F12, Invitrogen-11330057; 10% serum, Invitrogen-10099141; 100 units/ml Penicillin and 10 μg/ml Streptomycin, Invitrogen-15140122; 1% non-essential amino acid, Invitrogen-1140076; 2 mM L-GLUTAMINE, Invitrogen-25030081; 300 μg/ml Geneticin, Invitrogen-10131027 • 2.2 Reagents: • trypsin (Invitrogen-25300062) • DPBS (Hyclone-SH30028.01B) • DMSO (Sigma-D2650-100ML) • High-Throughput DNA Purification Kit (QIAamp 96 DNA Blood Kit, Qiagen-51162) • Quantitative Fast Start Universal Probe Reagent (FastStart Universal Probe Master, Roche-04914058001) • 2.3 Materials and Instruments: • 96-well cell culture plate (Corning-3599) • CO2 Incubator (HERA-CELL-240) • Optical Sealing Membrane (ABI-4311971) • Quantitative PCR 96-well Plate (Applied Biosystems-4306737) • Fluorescent Quantitative PCR Instrument (Applied Biosystems-7500 real time PCR system) • 3. Testing steps and Methods: • 3.1 HepG2.2.15 cells (4×10^4 cells/well) were planted into a 96-well plate, and at 37° C., 5% CO2 cultured overnight. • 3.2 On Day 2, the compounds were diluted in totally 8 concentrations with a dilution gradient of three times. The compounds at different concentrations were added into the culture wells in duplicate. The final concentration of DMSO in the culture media was 1%. 1 μM GLS4 was used as 100% inhibition control; 1% DMSO as 0% inhibition control. • 3.3 On Day 5, replacing with the fresh culture media containing the compound was performed. • 3.4 On Day 8, the culture media in the culture wells was collected, and DNA was extracted with a High-Throughput DNA Purification Kit (Qiagen-51162), See Specification of the product for specific steps. • 3.5 Preparation of PCR Reaction Mixture was shown in Table 1:
• 3.6 To each well of a 96-well PCR plate was added 15 μl reaction mixture, and then to each well was added 10 μl sample DNA or HBV DNA standard. • 3.7 The reaction conditions of PCR were: heating at 95° C. for 10 minutes; then at 95° C. denaturing for 15 seconds, and at 60° C. extending for 1 minute, totally 40 cycles. • 3.8 Data Analysis: • 3.8.1 The inhibition percentage was calculated: % Inh.=[1−(DNA copy number in sample−DNA copy number in 1 μM GLS4)/(DNA copy number in DMSO control−DNA copy number in 1 μM GLS4)]×100. • 3.8.2 Calculating EC50: the concentration of the compound for 50% inhibition of HBV (EC50) was calculated by using GraphPad Prism Software. • 4 Testing Results • The testing results were shown in Table 3: […]

[1] abbreviates: qPCR assay, read-out: Concentration for 50% inhibition of HBV (EC50)value.
Setting [2] is: summary list of target compounds, Examples 166-220 (values of Table 3), read-out: BIOACTIVITY (inhibitory actions on HBV DNA, EC50).

Regarding `CCOC(=O)C1=C2CN(CCO)S(=O)(=O)CN2C(c2nccs2)=N[C@H]1c1ccc(F)cc1Cl` [Example 176], the EC50 reads like this: under setting [1], 1 to 5 µM; under setting [2], 1 to 5 µM.

On to `COC(=O)C1=C2C[C@H](N(C)S(N)(=O)=O)CN2C(c2nccs2)=N[C@H]1c1ccc(F)cc1Cl` [Example 192], for which the EC50 was less than 0.1 µM under setting [1] and less than 0.1 µM under setting [2].

Take `CCS(=O)(=O)N[C@H]1CC2=C(C(=O)OC)[C@H](c3cccc(F)c3Cl)N=C(c3nccs3)N2C1` [Example 213]: the EC50 by setting is: under setting [1], less than 0.1 µM; under setting [2], less than 0.1 µM.

In the case of `COC(=O)C1=C2C[C@H](NS(C)(=O)=O)CN2C(c2nccs2)=N[C@H]1c1ccc(F)c(F)c1F` [Example 167], the EC50 is less than 0.1 µM under setting [1] and less than 0.1 µM under setting [2].

Take `COC(=O)C1=C2C[C@H](NS(N)(=O)=O)CN2C(c2nccs2)=N[C@@H]1c1ccc(F)c(F)c1Cl` [Example 197]: the EC50 is 1 to 5 µM under setting [1] and 1 to 5 µM under setting [2].

As to `COC(=O)C1=C2C[C@H](NS(=O)(=O)c3ccccn3)CN2C(c2nccs2)=N[C@H]1c1ccc(F)cc1Cl` [Example 200], the EC50 was less than 0.1 µM under setting [1] and less than 0.1 µM under setting [2].

In the case of `COC(=O)C1=C2C[C@H](NS(C)(=O)=O)CN2C(c2ncc(F)cc2F)=N[C@H]1c1ccc(F)cc1Cl` [Example 191], the EC50 reads like this: under setting [1], less than 0.1 µM; under setting [2], less than 0.1 µM.

`COC(=O)C1=C2C[C@H](N(CC#N)S(C)(=O)=O)CN2C(c2nccs2)=N[C@H]1c1ccc(F)cc1Cl` [Example 182]: the EC50 is less than 0.1 µM under setting [1] and less than 0.1 µM under setting [2].

`COC(=O)C1=C2C[C@H](NS(=O)(=O)c3cccnc3)CN2C(c2nccs2)=N[C@H]1c1ccc(F)cc1Cl` [Example 199]: the EC50 runs as follows: under setting [1], less than 0.1 µM; under setting [2], less than 0.1 µM.

As for `COC(=O)C1=C2C[C@H](NS(=O)(=O)CCN)CN2C(c2nccs2)=N[C@H]1c1ccc(F)cc1Cl` [Example 171], the EC50 under setting [1] was less than 0.1 µM and the EC50 under setting [2] was less than 0.1 µM.

Turning to `COC(=O)C1=C2C[C@H](NS(N)(=O)=O)CN2C(c2nccs2)=N[C@H]1c1cccc(F)c1F` [Example 220], the EC50 under setting [1] is less than 0.1 µM and the EC50 under setting [2] was less than 0.1 µM.

On to `COC(=O)C1=C2C[C@H](NS(=O)(=O)c3ccccc3F)CN2C(c2nccs2)=N[C@H]1c1ccc(F)cc1Cl` [Example 204], for which the EC50 reads like this: under setting [1], less than 0.1 µM; under setting [2], less than 0.1 µM.

Take `COC(=O)C1=C2C[C@@H](NS(C)(=O)=O)CN2C(c2nccs2)=N[C@@H]1c1ccc(F)cc1Cl` [Example 178]: the EC50 is, setting by setting: under setting [1], 0.1 to 0.5 µM; under setting [2], 0.1 to 0.5 µM.

Consider `COC(=O)C1=C2C[C@H](NS(=O)(=O)NC(C)(C)C)CN2C(c2nccs2)=N[C@H]1c1ccc(F)c(F)c1F` [Example 210], for which the EC50 was less than 0.1 µM under setting [1] and less than 0.1 µM under setting [2].

As to `CCCCNS(=O)(=O)N[C@H]1CC2=C(C(=O)OC)[C@H](c3ccc(F)c(F)c3F)N=C(c3nccs3)N2C1` [Example 214], the EC50 under setting [1] is less than 0.1 µM and the EC50 under setting [2] is less than 0.1 µM.

`COC(=O)C1=C2C[C@H](N(CC(=O)O)S(C)(=O)=O)CN2C(c2nccs2)=N[C@H]1c1ccc(F)cc1Cl` [Example 186]: the EC50 reads like this: under setting [1], 1 to 5 µM; under setting [2], 1 to 5 µM.

For `COC(=O)C1=C2C[C@H](NS(C)(=O)=O)CN2C(c2ncc(C)s2)=N[C@H]1c1ccc(F)cc1Cl` [Example 202], the EC50 under setting [1] fell in the range of 0.1 to 0.5 µM and the EC50 under setting [2] is 0.1 to 0.5 µM.

On to `COC(=O)C1=C2C[C@H](NS(=O)(=O)CCN(C)C)CN2C(c2nccs2)=N[C@H]1c1ccc(F)cc1Cl` [Example 166], for which the EC50 is, setting by setting: under setting [1], less than 0.1 µM; under setting [2], less than 0.1 µM.

For the compound `CNS(=O)(=O)N[C@H]1CC2=C(C(=O)OC)[C@H](c3ccc(F)c(F)c3F)N=C(c3nccs3)N2C1` [Example 206], the EC50 by setting is: under setting [1], less than 0.1 µM; under setting [2], less than 0.1 µM.

Consider `COC(=O)C1=C2C[C@H](NS(C)(=O)=O)CN2C(c2nccs2)=N[C@H]1c1ccc(F)cc1F` [Example 205], for which the EC50 by setting is: under setting [1], less than 0.1 µM; under setting [2], less than 0.1 µM.

`COC(=O)C1=C2C[C@H](NS(C)(=O)=O)CN2C(c2nccs2)=N[C@H]1c1ccc(F)c(F)c1Cl` [Example 201]: the EC50 is less than 0.1 µM under setting [1] and less than 0.1 µM under setting [2].
